In general, pIC50 refers to the IC50 on a negative log10 scale, so that one unit is a factor of ten. Lower therefore signals a large IC50.

pIC50: −log10 of the molar value.

Assay [1] deals with Human plasma kallikrein (Homo sapiens (Human), UniProt P03952). Briefly: Kallikrein Assay (fluorogenic substrate Acetyl-K-P-R-AFC). The class given is biochemical. The note with it: Plasma Kallikrein (PKal). The method, then: (§1) The effectiveness of a compound of the present invention as an inhibitor of Kallikrein can be determined using a relevant purified serine protease, and an appropriate synthetic substrate. The rate of hydrolysis of the chromogenic or fluorogenic substrate by the relevant serine protease was measured both in the absence and presence of compounds of the present invention. Assays were conducted at room temperature or at 37° C. […] A decrease in the rate of fluorescence change in the presence of inhibitor is indicative of enzyme inhibition. Such methods are known to one skilled in the art. The results of this assay are expressed as the half-maximal inhibitory concentrations (IC50), or the inhibitory constant, Ki.
Kallikrein determinations were made in 50 mM HEPES buffer at pH 7.4 containing 150 mM NaCl, 5 mM CaC12, and 0.1% PEG 8000 (polyethylene glycol; Fisher Scientific). Determinations were made using purified Human plasma kallikrein at a final concentration of 0.5 nM (Enzyme Research Laboratories) and the synthetic substrate, Acetyl-K-P-R-AFC (Sigma # C6608) at a concentration of […].
Times required to achieve equilibration between enzyme and inhibitor were determined in control experiments. […] IC50 was determined by inflection point from a four parameter logistic curve fit. Ki was calculated using the Cheng Prusoff equation, Ki = IC50/(1+([S]/Km)).

The target in assay [2] is human Factor XIa (Homo sapiens (Human), UniProt P03951). As to the kind of experiment: Factor XIa Assay (fluorogenic substrate GPR-AFC). It counts as biochemical. The note with it: Factor XIa (FXIa). How it is done:
as §1, with “Coagulation Factor XIa” for “Kallikrein”
Compounds were pre-incubated for 30 minutes at 25° C. with human (0.04 nM) Factor XIa in 50 mM HEPES buffer with 150 mM sodium chloride, 5 mM calcium chloride, 0.1% PEG 8000, pH 7.4. […] The % inhibition for each data point was calculated from the data and analyzed using the log (inhibitor) vs. response four parameters equation to determine the half-maximal inhibitory concentrations (IC50). The IC50 were converted to equilibrium inhibitory constants (Ki) using the Cheng-Prusoff equation.

Sequence of human Factor XIa (P03951 388-625 limits assumed): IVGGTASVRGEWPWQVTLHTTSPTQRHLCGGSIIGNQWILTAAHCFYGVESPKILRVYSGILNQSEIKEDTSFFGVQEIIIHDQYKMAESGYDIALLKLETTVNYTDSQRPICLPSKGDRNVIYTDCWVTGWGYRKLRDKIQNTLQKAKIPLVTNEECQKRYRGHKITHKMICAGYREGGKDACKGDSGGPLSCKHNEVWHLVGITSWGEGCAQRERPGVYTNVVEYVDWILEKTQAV
Sequence of human Factor XIa (P03951 19-387 partner limits assumed): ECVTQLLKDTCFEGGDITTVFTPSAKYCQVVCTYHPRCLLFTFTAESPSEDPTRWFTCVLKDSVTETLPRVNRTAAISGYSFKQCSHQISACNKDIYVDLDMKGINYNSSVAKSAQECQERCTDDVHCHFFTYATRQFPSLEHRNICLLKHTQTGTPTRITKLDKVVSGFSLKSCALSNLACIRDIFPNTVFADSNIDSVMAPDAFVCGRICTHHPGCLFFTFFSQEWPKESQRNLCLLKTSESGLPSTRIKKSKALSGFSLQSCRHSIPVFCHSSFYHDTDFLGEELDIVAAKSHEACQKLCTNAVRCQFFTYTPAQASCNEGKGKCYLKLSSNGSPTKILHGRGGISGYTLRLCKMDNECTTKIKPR
Sequence of Human plasma kallikrein (P03952 391-638): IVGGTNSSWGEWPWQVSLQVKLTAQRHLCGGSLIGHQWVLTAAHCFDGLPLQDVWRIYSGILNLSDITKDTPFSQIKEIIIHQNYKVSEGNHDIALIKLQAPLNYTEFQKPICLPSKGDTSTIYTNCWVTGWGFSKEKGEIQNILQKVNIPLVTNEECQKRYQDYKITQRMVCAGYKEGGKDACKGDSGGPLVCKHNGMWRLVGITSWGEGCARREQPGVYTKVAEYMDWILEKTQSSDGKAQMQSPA
Sequence of Human plasma kallikrein (P03952 20-390 partner): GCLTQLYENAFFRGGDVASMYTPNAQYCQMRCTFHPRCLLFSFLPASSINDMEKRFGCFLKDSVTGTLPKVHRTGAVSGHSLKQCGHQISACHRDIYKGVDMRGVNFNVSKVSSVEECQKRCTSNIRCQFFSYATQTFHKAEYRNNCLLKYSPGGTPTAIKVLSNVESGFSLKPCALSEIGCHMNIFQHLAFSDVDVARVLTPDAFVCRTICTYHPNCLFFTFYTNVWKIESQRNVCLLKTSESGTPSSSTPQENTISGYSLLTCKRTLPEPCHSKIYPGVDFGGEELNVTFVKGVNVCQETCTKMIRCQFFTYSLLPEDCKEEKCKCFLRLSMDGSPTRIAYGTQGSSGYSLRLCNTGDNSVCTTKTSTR

As for `Cc1ncc(-c2c(C(F)F)ccc(Cl)c2F)nc1C(=O)Nc1cnn(C(C)c2ncc(N3C[C@H]4C[C@H]4C3=O)c(C)c2C)c1` (single isomer, unassigned) [Example 242, 6-(3-Chloro-6-(difluoromethyl)-2-fluorophenyl)-N-(1-((R or S)-1-(3,4-dimethyl-5-((1R,5S)-2-oxo-3-azabicyclo[3.1.0]hexan-3-yl)pyridin-2-yl)ethyl)-1H-pyrazol-4-yl)-3-methylpyrazine-2-carboxamide], the negative logarithm of the IC50 (pIC50) in assay [1] was 9.10; in assay [2] it was less than 5.00.

For `Cc1nc(C2(n3cc(NC(=O)c4nc(-c5c(C(F)F)ccc(Cl)c5F)cnc4COC(C)(C)C)cn3)CC2)cnc1N1C[C@H]2C[C@H]2C1=O` [Example 222, 3-(tert-Butoxymethyl)-6-(3-chloro-6-(difluoromethyl)-2-fluorophenyl)-N-(1-(1-(6-methyl-5-((1R,5S)-2-oxo-3-azabicyclo[3.1.0]hexan-3-yl)pyrazin-2-yl)cyclopropyl)-1H-pyrazol-4-yl)pyrazine-2-carboxamide], the results for the negative logarithm of the IC50 (pIC50) in assay [1] and in assay [2] were 7.78 and less than 5.00, respectively.

Consider `C[C@@H](c1cnc(N2C[C@H]3C[C@H]3C2=O)nc1)n1cc(NC(=O)c2nc(-c3c(C(F)F)ccc(Cl)c3F)cnc2C(O)C(F)(F)F)cn1` (single isomer, unassigned) [Example 176, 6-(3-Chloro-6-(difluoromethyl)-2-fluorophenyl)-N-(1-((S)-1-(2-((1R,5S)-2-oxo-3-azabicyclo[3.1.0]hexan-3-yl)pyrimidin-5-yl)ethyl)-1H-pyrazol-4-yl)-3-((S or R)-2,2,2-trifluoro-1-hydroxyethyl)pyrazine-2-carboxamide], for which the negative-log IC50 (pIC50) in assay [1] was 8.28; in assay [2], 5.34.

For the compound `Cc1cc(Cn2cc(NC(=O)c3nc(-c4c(C(F)F)ccc(Cl)c4F)cnc3C(C)O)cn2)nnc1N1C[C@H]2C[C@H]2C1=O` (single isomer, unassigned) [Example 208], the pIC50 in assay [1] was 7.90; in assay [2] it was 5.98.

Take `Cc1cc(C(C)n2cc(NC(=O)c3cncc(-c4c(OC(F)F)ccc(Cl)c4F)n3)cn2)nnc1N1C[C@H]2C[C@H]2C1=O` (single isomer, unassigned) [Example 114, 6-(3-Chloro-6-(difluoromethoxy)-2-fluorophenyl)-N-(1-((S or R)-1-(5-methyl-6-((1R,5S)-2-oxo-3-azabicyclo[3.1.0]hexan-3-yl)pyridazin-3-yl)ethyl)-1H-pyrazol-4-yl)pyrazine-2-carboxamide]: the results for the pIC50 in assay [1] and in assay [2] were 9.15 and 6.25, respectively.

With `Cc1nc(N2C[C@H]3C[C@H]3C2=O)ncc1C(C)n1cc(NC(=O)c2nc(-c3c(C(F)F)ccc(Cl)c3F)cc(=O)n2C)cn1` (single isomer, unassigned) [Example 80, 4-(3-Chloro-6-(difluoromethyl)-2-fluorophenyl)-1-methyl-N-(1-((R or S)-1-(4-methyl-2-((1R,5S)-2-oxo-3-azabicyclo[3.1.0]hexan-3-yl)pyrimidin-5-yl)ethyl)-1H-pyrazol-4-yl)-6-oxo-1,6-dihydropyrimidine-2-carboxamide], the pIC50 in assay [1] was 7.60; in assay [2], 6.55.

In the case of `Cc1ncc(-c2c(C(F)F)ccc(Cl)c2F)nc1C(=O)Nc1cnn(C(C)c2cnc(N3C[C@H]4C[C@H]4C3=O)c3c2OC(F)(F)O3)c1` (single isomer, unassigned) [Example 247, 6-(3-Chloro-6-(difluoromethyl)-2-fluorophenyl)-N-(1-((S or R)-1-(2,2-difluoro-4-((1R,5S)-2-oxo-3-azabicyclo[3.1.0]hexan-3-yl)-[1,3]dioxolo[4,5-c]pyridin-7-yl)ethyl)-1H-pyrazol-4-yl)-3-methylpyrazine-2-carboxamide], the pIC50 was 9.10 in assay [1] and 5.03 in assay [2].

As to `Cc1nc(C(C)n2cc(NC(=O)c3nc(-c4c(C(F)F)ccc(Cl)c4F)cnc3C(F)F)cn2)cnc1N1C[C@H]2C[C@H]2C1=O` (single isomer, unassigned) [Example 100, 6-(3-Chloro-6-(difluoromethyl)-2-fluorophenyl)-3-(difluoromethyl)-N-(1-((S or R)-1-(6-methyl-5-((1R,5S)-2-oxo-3-azabicyclo[3.1.0]hexan-3-yl)pyrazin-2-yl)ethyl)-1H-pyrazol-4-yl)pyrazine-2-carboxamide], the values for the pIC50 in assay [1] and in assay [2] were 8.77 and 5.70, respectively.

For `Cc1cc(N2C[C@H]3C[C@H]3C2=O)ncc1C(C)n1cc(NC(=O)c2nc(-c3c(C(F)F)ccc(Cl)c3F)cnc2CO)cn1` (single isomer, unassigned) [Example 204, 6-(3-Chloro-6-(difluoromethyl)-2-fluorophenyl)-3-(hydroxymethyl)-N-(1-((R or S)-1-(4-methyl-6-((1R,5S)-2-oxo-3-azabicyclo[3.1.0]hexan-3-yl)pyridin-3-yl)ethyl)-1H-pyrazol-4-yl)pyrazine-2-carboxamide], the negative-log IC50 (pIC50) in assay [1] is 8.23; in assay [2] it was 5.60.

`Cc1ncc(-c2c(C(F)F)ccc(Cl)c2F)nc1C(=O)Nc1cnn(C2(c3cnc(N4C[C@H]5C[C@H]5C4=O)c(C)n3)CC2)c1` [Example 220, 6-(3-Chloro-6-(difluoromethyl)-2-fluorophenyl)-3-methyl-N-(1-(1-(6-methyl-5-((1R,5S)-2-oxo-3-azabicyclo[3.1.0]hexan-3-yl)pyrazin-2-yl)cyclopropyl)-1H-pyrazol-4-yl)pyrazine-2-carboxamide]: the pIC50 in assay [1] is 8.11; in assay [2] it was less than 5.00.

As to `CCc1ncc(-c2c(C(F)F)ccc(Cl)c2F)nc1C(=O)Nc1cnn(Cc2cnc(N3C[C@H]4C[C@H]4C3=O)c3c2OCO3)c1` [Example 255, 6-(3-Chloro-6-(difluoromethyl)-2-fluorophenyl)-3-ethyl-N-(1-((4-((1R,5S)-2-oxo-3-azabicyclo[3.1.0]hexan-3-yl)-[1,3]dioxolo[4,5-c]pyridin-7-yl)methyl)-1H-pyrazol-4-yl)pyrazine-2-carboxamide], the pIC50 is 8.59 in assay [1] and 6.13 in assay [2].

Take `Cc1c(N2C[C@H]3C[C@H]3C2=O)cnc(C(C)n2cc(NC(=O)c3cncc(-c4c(C(F)F)ccc(Cl)c4F)n3)cn2)c1C` (single isomer, unassigned) [Example 243, 6-(3-Chloro-6-(difluoromethyl)-2-fluorophenyl)-N-(1-((R or S)-1-(3,4-dimethyl-5-((1R,5S)-2-oxo-3-azabicyclo[3.1.0]hexan-3-yl)pyridin-2-yl)ethyl)-1H-pyrazol-4-yl)pyrazine-2-carboxamide]: the negative-log IC50 (pIC50) is 9.22 in assay [1] and less than 5.00 in assay [2].

As for `Cc1cc(N2C[C@H]3C[C@H]3C2=O)ccc1C(C)n1cc(NC(=O)c2nc(-c3c(C(F)F)ccc(Cl)c3F)cnc2C)cn1` (single isomer, unassigned) [Example 97, 6-(3-Chloro-6-(difluoromethyl)-2-fluorophenyl)-3-methyl-N-(1-((S or R)-1-(2-methyl-4-((1R,5S)-2-oxo-3-azabicyclo[3.1.0]hexan-3-yl)phenyl)ethyl)-1H-pyrazol-4-yl)pyrazine-2-carboxamide], the negative-log IC50 (pIC50) was 8.89 in assay [1] and less than 5.00 in assay [2].

`Cc1ncc(-c2c(C(F)F)ccc(Cl)c2F)nc1C(=O)Nc1cnn(Cc2cnc(N3C[C@H]4C[C@H]4C3=O)c(F)c2)c1` [Example 82, 6-(3-Chloro-6-(difluoromethyl)-2-fluorophenyl)-N-(1-((5-fluoro-6-((1R,5S)-2-oxo-3-azabicyclo[3.1.0]hexan-3-yl)pyridin-3-yl)methyl)-1H-pyrazol-4-yl)-3-methylpyrazine-2-carboxamide]: the pIC50 in assay [1] was 8.74; in assay [2], 6.03.

With `Cc1cc(C(C)n2cc(NC(=O)c3nc(-c4c(C(F)F)ccc(Cl)c4F)cnc3CO)cn2)cnc1N1C[C@H]2C[C@H]2C1=O` (single isomer, unassigned) [Example 199, 6-(3-Chloro-6-(difluoromethyl)-2-fluorophenyl)-3-(hydroxymethyl)-N-(1-((S or R)-1-(5-methyl-6-((1R,5S)-2-oxo-3-azabicyclo[3.1.0]hexan-3-yl)pyridin-3-yl)ethyl)-1H-pyrazol-4-yl)pyrazine-2-carboxamide], in assay [1], the pIC50 is 9.70.

Compound `Cc1cc(C(C)n2cc(NC(=O)c3nc(-c4c(C(F)F)ccc(Cl)c4F)cnc3CO)cn2)cnc1N1C[C@H]2C[C@H]2C1=O` (single isomer, unassigned) [Example 200, 6-(3-Chloro-6-(difluoromethyl)-2-fluorophenyl)-3-(hydroxymethyl)-N-(1-((R or S)-1-(5-methyl-6-((1R,5S)-2-oxo-3-azabicyclo[3.1.0]hexan-3-yl)pyridin-3-yl)ethyl)-1H-pyrazol-4-yl)pyrazine-2-carboxamide] showed a pIC50 in assay [1] of 9.70.

Values taken from US20230286958A1, “PLASMA KALLIKREIN INHIBITORS” (Merck Sharp & Dohme LLC, priority 2020, published 2023).
